Results as given in US8907131B2, “Compounds for treating proliferative disorders” (Synta Pharmaceuticals Corp., priority 2007, dated 2014).

System: Hsp70
Assay: Hsp70 ELISA assay: Hsp70 induction in Ramos B lymphoma cells
Type: cell-based
Details: Homo sapiens; Ramos B lymphoma cells treated at 10, 50, 250 and 1250 nM for 5 h; whole culture lysate, Hsp70 ELISA; read-out: ED50 (Hsp70 induction)
Protocol: Hsp70 induction was measured in Ramos B lymphoma cells. Cells were seeded at 80 μl/well in 96-plate and treated with compounds at 10, 50, 250 and 1250 nM for 5 h. […] Cells were lysed in culture medium with ¼-vol of alkaline-detergent buffer composed of 200 mM bicarbonate, pH 9.4, and 20% Triton X100 to include Hsp70 that would be released into culture supernatant. […] Fifty microliter of the whole culture lysate was transferred to Hsp70 ELISA assay well (Assay Design) including 150 μl of immunoenhancer solution (Toyobo, Japan). Then the assay steps were carried out according to the protocol of the manufacturer. Compound A was included in each cell culture plate as a reference to normalize the interexperimental variance.

Compound | EC50
CN(NC(=O)CC(=O)NN(C)C(=[Se])c1ccccc1)C(=[Se])c1ccccc1 [Compound 1, N′1,N′3-dimethyl-N′1,N′3-di(phenylcarbonoselenoyl)malonohydrazide] | 70 nM
CO/N=C(\c1ccccc1)N(C)NC(=O)CC(=O)NN(C)/C(=N/OC)c1ccccc1 [Compound 10, N′1,N′3-bis((E)-(methoxyimino)(phenyl)methyl)-N′1,N′3-dimethylmalonohydrazide] | > 1250 nM
CN(NC(=O)CC(=O)NN(C)/C(=N/O)c1ccccc1)/C(=N/O)c1ccccc1 [Compound 11, N′1,N′3-bis((E)-(hydroxyimino)(phenyl)methyl)-N′1,N′3-dimethylmalonohydrazide] | > 1250 nM
COc1ccc(OC)c(C(=[Se])N(C)NC(=O)CC(=O)NN(C)C(=[Se])c2cc(OC)ccc2OC)c1 [Compound 12, N′^1,N′3-bis(2,5-dimethoxyphenylcarbonoselenoyl)-N′^1,N′^3-dimethylmalonohydrazide] | > 1250 nM
CNN=C(C(=O)NN(C)C(=[Se])c1ccccc1)C(=O)NN(C)C(=[Se])c1ccccc1 [Compound 13, N′1,N′3-dimethyl-2-(2-methylhydrazono)-N′1,N′3-di(phenylcarbonoselenoyl)malonohydrazide] | > 1250 nM
CN(NC(=O)CS(=O)(=O)NN(C)C(=[Se])c1ccccc1)C(=[Se])c1ccccc1 [Compound 14, N′-methyl-2-(2-methyl-2-(phenylcarbonoselenoyl)hydrazinyl)-2-oxo-N′-(phenylcarbonoselenoyl)ethanesulfonohydrazide] | > 1250 nM

Same assay, conditions: Ramos B lymphoma cells; titration used to set cell density

Compound | Hsp70 induction
CN(NC(=O)CC(=O)NN(C)C(=S)c1ccccc1)C(=S)c1ccccc1 [Compound A, reference compound] | Hsp70 induction in linear manner with concentration
